One compound from US10596193B2, “Copper (I) complexes with glycine, pyruvate, and succinate” (C LAB PHARMA INTERNATIONAL, S.A., priority 2013, dated 2020) can be followed below.

For the assay, the system named is lymphoblasts from autistic donors with mitochondrial dysfunction (A). To be noted: 500 μM copper (I) glycinate, measured by oxygen consumption rate, vs cells without the copper (I) complex, FIG. 17 panel B.

Method: ATP-linked respiration, proton leak, maximal respiratory capacity, and reserve capacity were determined as measured by the cells' oxygen consumption rate.

Turning to `NCC(=O)[O-].[Cu+]` [copper (I) glycinate], the proton leak entry is recorded as “significantly reduced proton leak”.
